Test results reported in patent US9428459B2, “Difluoromethyl-nicotinic- tetrahydronaphtyl carboxamides” (BAYER CROPSCIENCE AG, priority 2012, dated 2016).

What was measured:
[1] = log P by HPLC on reversed phase columns (EEC directive 79/831 Annex V.A8); type: physicochemical; details: method [a]: LC-MS at pH 2.7, 0.1% formic acid in water / acetonitrile, gradient 10% to 95% acetonitrile; for chromatographic logP: reversed phase HPLC columns
Method: Measurement of log P values was performed according EEC directive 79/831 Annex V.A8 by HPLC (High Performance Liquid Chromatography) on reversed phase columns with the following methods: ^[a]Measurement of LC-MS was done at pH 2.7 with 0.1% formic acid in water and with acetonitrile (contains 0.1% formic acid) as eluent with a linear gradient from 10% acetonitrile to 95% acetonitrile. Calibration was done with not branched alkan2-ones (with 3 to 16 carbon atoms) with known log P-values (measurement of log P values using retention times with linear interpolation between successive alkanones). lambda-maX-values were determined using UV-spectra from 200 nm to 400 nm and the peak values of the chromatographic signals.

Puccinia recondita = assay: In vivo preventive test on Puccinia recondita (brown rust on wheat); details: wheat plants, preventive spray, grading 12 days after contamination
Method: Wheat plants (“Scipion” variety), sown in starter cups on a 50/50 peat soil-pozzolana substrate and grown at 22° C., are treated at the 1-leaf stage (10 cm height) by spraying with the active ingredient prepared as described above. Plants, used as controls, are treated with the mixture of acetone/tween/DMSO/water not containing the active material. After 24 hours, the plants are contaminated by spraying the leaves with an aqueous suspension of Puccinia recondita spores (100 000 spores per ml). The spores are collected from an infected plant and are suspended in water containing 2.5 ml/l of Tween 80 at 10%. The contaminated wheat plants are incubated for 24 hours at 20° C. and at 100% relative humidity, and then for 10 days at 20° C. and at 70-80% relative humidity. Grading (% of efficacy) is carried out 12 days after the contamination, in comparison with the control plants.

Botrytis cinerea = assay: In vivo preventive test on Botrytis cinerea (grey mould); details: gherkin plants, preventive spray, grading 4 to 5 days after contamination
Method: Gherkin plants (“Vert petit de Paris” variety), sown in starter cups on a 50/50 peat soil-pozzolana substrate and grown at 24° C., are treated at the Z11 cotyledon stage by spraying with the active ingredient prepared as described above. Plants, used as controls, are treated with the mixture of acetone/tween/DMSO/water not containing the active material. After 24 hours, the plants are contaminated by spraying the cotyledons with an aqueous suspension of cryopreserved Botrytis cinerea spores (50 000 spores per ml). The spores are suspended in a nutrient solution composed of 10 g/L of PDB, 50 g/L of D-Fructose, 2 g/L of NH4NO3 and 1 g/L of KH2PO4. The contaminated gherkin plants are incubated at 17° C. and at 90% relative humidity. Grading (% of efficacy) is carried out 4 to 5 days after the contamination, in comparison with the control plants.

Sphaerotheca fuliginea = assay: In vivo preventive test on Sphaerotheca fuliginea (powdery mildew on cucurbits); details: dose 100 ppm, gherkin plants, preventive spray, grading 12 days after contamination
Method: Gherkin plants (“Vert petit de Paris” variety), sown in starter cups on a 50/50 peat soil-pozzolana substrate and grown at 24° C., are treated at the Z11 cotyledon stage by spraying with the active ingredient prepared as described above. Plants, used as controls, are treated with the mixture of acetone/tween/DMSO/water not containing the active material. After 24 hours, the plants are contaminated by spraying the cotyledons with an aqueous suspension of Sphaerotheca fuliginea spores (100 000 spores per ml). The spores are collected from infected plants. The contaminated gherkin plants are incubated at about 20° C. and at 70-80% relative humidity. Grading (% of efficacy) is carried out 12 days after the contamination, in comparison with the control plants.

Pyrenophora teres = assay: In vivo preventive test on Pyrenophora teres (net blotch on barley); details: dose 500 ppm, barley plants, preventive spray, grading 14 days after contamination
Method: Barley plants (“Plaisant” variety), sown in starter cups on a 50/50 peat soil-pozzolana substrate and grown at 22° C., are treated at the 1-leaf stage (10 cm height) by spraying with the active ingredient prepared as described above. Plants, used as controls, are treated with the mixture of acetone/tween/DMSO/water not containing the active material. After 24 hours, the plants are contaminated by spraying the leaves with an aqueous suspension of Pyrenophora teres spores (12 000 spores per ml). The spores are collected from a 12-day-old culture. The contaminated barley plants are incubated for 48 hours at 20° C. and at 100% relative humidity, and then for 12 days at 20° C. at 70-80% relative humidity. Grading (% of efficacy) is carried out 14 days after the contamination, in comparison with the control plants.

Alternaria brassicae = assay: In vivo preventive test on Alternaria brassicae (leaf spot on radish); details: dose 500 ppm, radish plants, preventive spray, grading 6 days after contamination
Method: Radish plants (“Pernod Clair” variety), sown in starter cups on a 50/50 peat soil-pozzolana substrate and grown at 17° C., are treated at the cotyledon stage by spraying with the active ingredient prepared as described above. Plants, used as controls, are treated with the mixture of acetone/tween/DMSO/water not containing the active material. After 24 hours, the plants are contaminated by spraying the cotyledons with an aqueous suspension of Alternaria brassicae spores (50 000 spores per ml). The spores are collected from a 15-day-old culture. The contaminated radish plants are incubated at 20° C. and at 100% relative humidity. Grading (% of efficacy) is carried out 6 days after the contamination, in comparison with the control plants.

Uromyces appendiculatus = assay: In vivo preventive test on Uromyces appendiculatus (bean rust); details: dose 500 ppm, bean plants, preventive spray, grading 11 days after contamination
Method: The active ingredients tested are prepared by homogenization in a mixture of acetone/tween/DMSO, and then diluted with water to obtain the desired active material concentration.
Bean plants (“Saxa” variety), sown in starter cups on a 50/50 peat soil-pozzolana substrate and grown at 24° C., are treated at the 2-leaf stage (9 cm height) by spraying with the active ingredient prepared as described above. Plants, used as controls, are treated with the mixture of acetone/tween/DMSO/water not containing the active material.
After 24 hours, the plants are contaminated by spraying the leaves with an aqueous suspension of Uromyces appendiculatus spores (150 000 spores per ml). The spores are collected from infected plants and are suspended in water containing 2.5 ml/l of Tween 80 at 10%. The contaminated bean plants are incubated for 24 hours at 20° C. and at 100% relative humidity, and then for 10 days at 20° C. and at 70-80% relative humidity.
Grading (% of efficacy) is carried out 11 days after the contamination, in comparison with the control plants.

Septoria tritici = assay: In vivo preventive test on Septoria tritici (leaf spot on wheat); details: dose 100 ppm, wheat plants, preventive spray, grading 24 days after contamination
Method: Wheat plants (“Scipion” variety), sown in starter cups on a 50/50 peat soil-pozzolana substrate and grown at 22° C., are treated at the 1-leaf stage (10 cm height) by spraying with the active ingredient prepared as described above. Plants, used as controls, are treated with the mixture of acetone/tween/DMSO/water not containing the active material. After 24 hours, the plants are contaminated by spraying the leaves with an aqueous suspension of cryopreserved Septoria tritici spores (500 000 spores per ml). The contaminated wheat plants are incubated for 72 hours at 18° C. and at 100% relative humidity, and then for 21 days at 90% relative humidity. Grading (% of efficacy) is carried out 24 days after the contamination, in comparison with the control plants.

Row | SMILES | logP [1] | further results
1 | CCON=C1CCCc2c(NC(=O)c3cccnc3C(F)F)cccc21 [Example 16] | 2.90^[a] | –
2 | Cc1cnc(C(F)F)c(C(=S)Nc2cccc3c2CCC(C)(C)C3)c1 [Example 17, 2-(difluoromethyl)-N-(6,6-dimethyl-5,6,7,8-tetrahydronaphthalen-1-yl)-5-methylpyridine-3-carbothioamide] | – | chromatographic logP [1]: 3.94
3 | CC1(C)CCc2cccc(NC(=O)c3cccnc3C(F)F)c2C1 [Example 1, 2-(difluoromethyl)-N-(7,7-dimethyl-5,6,7,8-tetrahydronaphthalen-1-yl)nicotinamide] | – | chromatographic logP [1]: 3.23
4 | CC1(C)CCc2c(NC(=O)c3cccnc3C(F)F)cccc2C1=O [Example 5] | 2.28^[a] | biological efficacy (Pyrenophora teres): ≥ 70%
5 | Cc1cnc(C(F)F)c(C(=O)Nc2cccc3c2CCC(C)(C)C3)c1 [Example 7, 2-(difluoromethyl)-N-(6,6-dimethyl-5,6,7,8-tetrahydronaphthalen-1-yl)-5-methylnicotinamide] | – | chromatographic logP [1]: 3.52
6 | CC1CCC(C)(C)c2cccc(NC(=O)c3cccnc3C(F)F)c21 (stereo not shown) [Example 3] | 3.37^[a] | –
7 | C=C1c2cccc(NC(=O)c3cccnc3C(F)F)c2CCC1(C)C [Example 4] | 3.33^[a] | biological efficacy (Alternaria brassicae): ≥ 70%
8 | CC1CCc2c(NC(=O)c3cccnc3C(F)F)cccc2C1C (mixture of isomers) [Example 6] | 3.24^[a] | –
9 | CC1c2cccc(NC(=O)c3cccnc3C(F)F)c2CCC1(C)C (stereo not shown) [Example 2] | 3.55^[a] | –
10 | CON=C1CCCc2c(NC(=O)c3cccnc3C(F)F)cccc21 [Example 9] | 2.49^[a] | biological efficacy (Uromyces appendiculatus): ≥ 70%; biological efficacy (Puccinia recondita; dose 500 ppm): ≥ 70%; biological efficacy (Botrytis cinerea; dose 500 ppm): ≥ 70%; biological efficacy (Alternaria brassicae): ≥ 90%
11 | CC1(C)CCCc2c(NC(=S)c3cccnc3C(F)F)ccc(F)c21 [Example 15] | 3.79^[a] | –
12 | Cc1cnc(C(F)F)c(C(=O)Nc2ccc(F)c3c2CCCC3(C)C)c1 [Example 10] | 3.57^[a] | –
13 | CC(C)C1CCCc2c(NC(=O)c3ccc(Cl)nc3C(F)F)cccc21 (stereo not shown) [Example 19] | 4.31^[a] | biological efficacy (Puccinia recondita; dose 100 ppm): ≥ 70%; biological efficacy (Septoria tritici): ≥ 70%

More lines, main results first:

Row | logP [1] | SMILES | further results
14 | 3.60^[a] | CC(C)C1CCCc2c(NC(=O)c3cccnc3C(F)F)cccc21 (stereo not shown) [Example 18] | biological efficacy (Puccinia recondita; dose 100 ppm): ≥ 90%; biological efficacy (Botrytis cinerea; dose 100 ppm): ≥ 90%; biological efficacy (Sphaerotheca fuliginea): ≥ 80%
15 | 3.46^[a] | Cc1cnc(C(F)F)c(C(=O)Nc2cccc3c2CCCC3(C)C)c1 [Example 20] | –
16 | 3.23^[a] | CC1(C)CCc2c(cccc2NC(=O)c2cccnc2C(F)F)C1 [Example 14] | –
17 | 3.19^[a] | CCON=C1CCCc2c(NC(=O)c3cc(C)cnc3C(F)F)cccc21 [Example 13] | –
18 | 3.29^[a] | CC1(C)CCCc2c(NC(=O)c3cccnc3C(F)F)ccc(F)c21 [Example 12] | –
19 | 3.94^[a] | CC1(C)CCCc2c(NC(=O)c3ccc(Cl)nc3C(F)F)ccc(F)c21 [Example 11] | –
20 | 2.75^[a] | CON=C1CCCc2c(NC(=O)c3cc(C)cnc3C(F)F)cccc21 [Example 8] | –
